According to patent publication US10597388B2, “Pyridazinone herbicides” (FMC CORPORATION, priority 2014, dated 2020):

Tests used:
Format in all cases: in vivo
[1] = tested on: velvetleaf (Abutilon theophrasti); experiment: Test C greenhouse herbicide test, pre- and postemergence
Description: (§1) Seeds of plant species selected from blackgrass (Alopecurus myosuroides), ryegrass, Italian (Italian ryegrass, Lolium multiflorum), wheat (winter wheat, Triticum aestivum), galium (catchweed bedstraw, Galium aparine), corn (Zea mays), large crabgrass, large (large crabgrass, Digitaria sanguinalis), foxtail, giant (giant foxtail, Setaria faberii), johnsongrass (Sorghum halepense), lambsquarters (Chenopodium album), morningglory (Ipomoea coccinea), nutsedge, yellow (yellow nutsedge, Cyperus esculentus), pigweed (Amaranthus retroflexus), ragweed (common ragweed, Ambrosia elatior), soybean (Glycine max), barnyardgrass (Echinochloa crus-galli), oilseed rape (Brassica napus), waterhemp (common waterhemp, Amaranthus rudis), and velvetleaf (Abutilon theophrasti) were planted into a blend of loam soil and sand and treated preemergence with test chemicals formulated in a non-phytotoxic solvent mixture which included a surfactant.
(§2) At the same time, plants selected from these crop and weed species and also chickweed (common chickweed, Stellaria media), kochia (Kochia scoparia), and oat, wild (wild oat, Avena fatua), were planted in pots containing Redi-Earth® planting medium (Scotts Company, 14111 Scottslawn Road, Marysville, Ohio 43041) comprising spaghnum peat moss, vermiculite, wetting agent and starter nutrients and treated with postemergence applications of test chemicals formulated in the same manner. Plants ranged in height from 2 to 18 cm (1- to 4-leaf stage) for postemergence treatments. Treated plants and controls were maintained in a greenhouse for 13 to 15 d, after which time all species were compared to controls and visually evaluated. Plant response ratings, summarized in Table C, are based on a scale of 0 to 100 where 0 is no effect and 100 is complete control. A dash (-) response means no test result.

[2] = tested on: barnyardgrass (Echinochloa crus-galli); experiment: as above
Description: as §1, §2

[3] = tested on: galium (catchweed bedstraw, Galium aparine); experiment: as above
Description: as §1, §2

[4] = tested on: barnyardgrass (Echinochloa crus-galli); experiment: Test A greenhouse herbicide test, pre- and postemergence
How it was run: (§3)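 Visual injury ratings, 0 (no effect) to 100 (complete control), versus untreated plants after roughly 10 d in a greenhouse. Compounds, formulated in a surfactant-containing non-phytotoxic solvent, were sprayed on loam–sand soil after sowing (pre) or on one- to two-leaf plants 2–10 cm tall (post).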

corn (Zea mays) = experiment: as above; details: Postemergence
How it was run: as §3

[5] = tested on: ryegrass, Italian (Italian ryegrass, Lolium multiflorum); experiment: as above
How it was run: as §3

[6] = tested on: wheat (Triticum aestivum); experiment: as above; details: Postemergence
How it was run: as §3

[7] = tested on: foxtail, giant (giant foxtail, Setaria faberii); experiment: as above
How it was run: as §3

kochia (Kochia scoparia) = experiment: as above
How it was run: as §3

[8] = tested on: ragweed (common ragweed, Ambrosia elatior); experiment: as above
How it was run: as §3

[9] = tested on: pigweed (Amaranthus retroflexus); experiment: as above
How it was run: as §3

[10] = Postemergence, 125 g ai/ha, scale 0 to 100, 0 is no effect, 100 is complete control
[11] = Postemergence, 250 g ai/ha, scale 0 to 100, 0 no effect, 100 complete control, 13 to 15 d
[12] = Preemergence, 31 g ai/ha, scale 0 to 100, 0 is no effect, 100 is complete control
[13] = Preemergence, 62 g ai/ha, scale 0 to 100, 0 is no effect, 100 is complete control
[14] = Preemergence, 125 g ai/ha, scale 0 to 100, 0 is no effect, 100 is complete control
[15] = Preemergence, 250 g ai/ha, scale 0 to 100 (0 no effect, 100 complete control)
[16] = postemergence, 62 g ai/ha, scale 0 to 100, 0 no effect, 100 complete control
[17] = Postemergence, 125 g ai/ha, 0 to 100 scale where 0 is no effect and 100 is complete control
[18] = Postemergence, 500 g ai/ha, 0 to 100 scale, 0 is no effect, 100 is complete control
[19] = Preemergence, 125 g ai/ha, 0 to 100 scale where 0 is no effect and 100 is complete control
[20] = Preemergence, 500 g ai/ha, 0 to 100 scale where 0 is no effect and 100 is complete control
[21] = 125 g ai/ha, 0 to 100 scale where 0 is no effect and 100 is complete control
[22] = 500 g ai/ha, 0 to 100 scale, 0 is no effect, 100 is complete control
[23] = Postemergence, 31 g ai/ha, scale 0 to 100 (0 no effect, 100 complete control)
[24] = Postemergence, 500 g ai/ha, visual rating after approx. 10 d, 0 to 100 scale (0 no effect, 100 complete control)
[25] = 500 g ai/ha, visual rating after approx. 10 d, 0 to 100 scale (0 no effect, 100 complete control)

## Cc1cc(C)c2sc(C)c(-c3c(OC(=O)OCCCl)c(C)nn(C)c3=O)c2c1 [Compound 85]
[1]; [10]
  Plant response rating, Velvetleaf: 85
[1]; [11]
  Plant response rating, Velvetleaf: 95
[1]; [12]
  Plant response rating, Velvetleaf: 50
[1]; [13]
  Plant response rating, Velvetleaf: 80
[1]; [14]
  Plant response rating, Velvetleaf: 85
[1]; [15]
  Velvetleaf plant response rating: 90
[1]; [16]
  Velvetleaf plant response rating: 85
[2]; Postemergence, 31 g ai/ha, 0 to 100 scale (0 no effect, 100 complete control)
  Barnyardgrass plant response rating: 25
[2]; [10]
  Plant response rating, Barnyardgrass: 40
[2]; [11]
  Plant response rating, Barnyardgrass: 50
[2]; [12]
  Plant response rating, Barnyardgrass: 35
[2]; [13]
  Plant response rating, Barnyardgrass: 60
[2]; [14]
  Plant response rating, Barnyardgrass: 80
[2]; [15]
  Barnyardgrass plant response rating: 90
[2]; [16]
  Barnyardgrass plant response rating: 45
[3]; [10]
  Plant response rating, Galium: 100
[3]; [11]
  Plant response rating, Galium: 100
[3]; [12]
  Plant response rating, Galium: 90
[3]; [13]
  Plant response rating, Galium: 90
[3]; [14]
  Plant response rating, Galium: 95
[3]; [15]
  Galium plant response rating: 95
[3]; [16]
  Galium plant response rating: 100
[4]; [17]
  Plant response rating, Barnyardgrass: 30
[4]; [18]
  Barnyardgrass plant response rating: 80
[4]; [19]
  Barnyardgrass plant response rating: 70
[4]; [20]
  Plant response rating, Barnyardgrass: 100
Corn (Zea mays); [21]
  Plant response rating, Corn: 0
Corn (Zea mays); [22]
  Corn plant response rating: 0
[5]; [17]
  Plant response rating, Ryegrass, Italian: 90
[5]; [18]
  Ryegrass, Italian plant response rating: 90
[5]; [19]
  Ryegrass, Italian plant response rating: 100
[5]; [20]
  Plant response rating, Ryegrass, Italian: 100
[6]; [21]
  Plant response rating, Wheat: 0
[6]; [22]
  Wheat plant response rating: 0
[7]; [17]
  Plant response rating, Foxtail, Giant: 90
[7]; [18]
  Foxtail, Giant plant response rating: 90
[7]; [19]
  Foxtail, Giant plant response rating: 100
[7]; [20]
  Plant response rating, Foxtail, Giant: 100
Kochia (Kochia scoparia); [17]
  Plant response rating, Kochia: 30
Kochia (Kochia scoparia); [18]
  Kochia plant response rating: 70
Kochia (Kochia scoparia); [19]
  Kochia plant response rating: 0
Kochia (Kochia scoparia); [20]
  Plant response rating, Kochia: 30
[8]; [17]
  Plant response rating, Ragweed: 90
[8]; [18]
  Ragweed plant response rating: 90
[8]; [19]
  Ragweed plant response rating: 90
[8]; [20]
  Plant response rating, Ragweed: 90
[9]; [17]
  Plant response rating, Pigweed: 90
[9]; [18]
  Pigweed plant response rating: 100
[9]; [19]
  Pigweed plant response rating: 100
[9]; [20]
  Plant response rating, Pigweed: 100

## Cc1nn(C)c(=O)c(-c2cc(F)cc3ccccc23)c1OS(C)(=O)=O [Compound 115]
[1]; [23]
  Plant response rating, Velvetleaf: 15
[1]; [10]
  Plant response rating, Velvetleaf: 70
[1]; [11]
  Plant response rating, Velvetleaf: 65
[2]; [23]
  Plant response rating, Barnyardgrass: 10
[2]; [10]
  Plant response rating, Barnyardgrass: 35
[2]; [11]
  Plant response rating, Barnyardgrass: 45
[2]; [16]
  Barnyardgrass plant response rating: 20
[3]; [23]
  Plant response rating, Galium: 85
[3]; [10]
  Plant response rating, Galium: 95
[3]; [11]
  Plant response rating, Galium: 95
[4]; [17]
  Plant response rating, Barnyardgrass: 20
[4]; [24]
  Plant response rating, Barnyardgrass: 90
[4]; [19]
  Barnyardgrass plant response rating: 10
[4]; [20]
  Plant response rating, Barnyardgrass: 50
Corn (Zea mays); [21]
  Plant response rating, Corn: 0
Corn (Zea mays); [25]
  Plant response rating, Corn: 20
[5]; [17]
  Plant response rating, Ryegrass, Italian: 100
[5]; [24]
  Plant response rating, Ryegrass, Italian: 100
[5]; [19]
  Ryegrass, Italian plant response rating: 100
[5]; [20]
  Plant response rating, Ryegrass, Italian: 100
[6]; [21]
  Plant response rating, Wheat: 20
[6]; [25]
  Plant response rating, Wheat: 30
[7]; [17]
  Plant response rating, Foxtail, Giant: 20
[7]; [24]
  Plant response rating, Foxtail, Giant: 90
[7]; [19]
  Foxtail, Giant plant response rating: 30
[7]; [20]
  Plant response rating, Foxtail, Giant: 50
Kochia (Kochia scoparia); [17]
  Plant response rating, Kochia: 70
Kochia (Kochia scoparia); [24]
  Plant response rating, Kochia: 90
Kochia (Kochia scoparia); [19]
  Kochia plant response rating: 30
Kochia (Kochia scoparia); [20]
  Plant response rating, Kochia: 90
[8]; [17]
  Plant response rating, Ragweed: 80
[8]; [24]
  Plant response rating, Ragweed: 100
[8]; [19]
  Ragweed plant response rating: 40
[8]; [20]
  Plant response rating, Ragweed: 90
[9]; [17]
  Plant response rating, Pigweed: 70
[9]; [24]
  Plant response rating, Pigweed: 90
[9]; [19]
  Pigweed plant response rating: 70
[9]; [20]
  Plant response rating, Pigweed: 100
